Experimental findings from patent US10039288B2, “Pathogenic infections” (University of Surrey, priority 2015, dated 2018) are described below.

In brackets after ≈: the same amount, converted by molar mass. Several values for one entry are separate records, joined by “and”; a condition that tells them apart may be missing. Equal entries are not always repeated. Where two headings read alike, the source gives them in different places.

Experiment [1] concerns Plasmopara viticola. As to the kind of experiment: In vitro zoospore germination and activity, MIC(100%). It is filed as cell-based. The settings on record: for MIC: Plasmopara viticola, read-out: Minimal inhibitory concentration (MIC(100%)) Plasmopara viticola; for Minimal inhibitory concentration (MIC(100%)) Plasmopara viticola: zoospore germination and activity, in vitro.

Experiment [2] deals with Phytophthora infestans. It is filed as cell-based. The conditions noted are these: germination, in vitro.
For experiment [3], the system named is Plasmopara viticola. As to the kind of experiment: Preliminary screening of crude extracts and compounds (Table 3).
The subject of experiment [4] is P. viticola. Also on record: species or system Plasmopara viticola.
Where [5] appears, read: 0.147% mass/volume, Isopropanol.

In the case of `COc1cc(C[C@H]2CO[C@H](c3ccc(O)c(OC)c3)[C@H]2COC(C)=O)ccc1O` [Compound 4, (+)-lariciresinol acetate], the MIC in experiment [1] worked out at 125 µg/mL. Besides, the “Minimal inhibitory concentration (MIC(100%)) Phytophthora infestans” value in experiment [2] was “No actvity”. Besides, the figures for the Activity in experiment [3] (sample 0.008% mass/volume), in experiment [3] (sample 0.036% mass/volume) and in experiment [3] (sample 0.08% mass/volume) were 13.1%, 78.8% and 92.4%, respectively.
For `C=CC(C)(O)CCC1C(=C)CC(OC(C)=O)C2C(C)(C)CCCC12C` (stereo not drawn) [Compound 2, larixyl acetate], the “Efficacy (%)” value was 24.5% in experiment [4] (0.01% mass/volume, Isopropanol); 69.2% in experiment [4] (0.012% mass/volume, Ethanol); 83.3% in experiment [4] (0.025% mass/volume, Ethanol); 98.4% in experiment [4] (0.05% mass/volume, Ethanol); 99.9% and 99.4% in experiment [4] (0.1% mass/volume, Ethanol); 100.0% in experiment [4] (0.12% mass/volume, Ethanol). Also, the “Efficacy (%)” value in experiment [4] (setting [5]) is given as 99.5%. In experiment [1], the “Minimal inhibitory concentration (MIC(100%)) Plasmopara viticola” value was 4 ppm. The “Minimal inhibitory concentration (MIC(100%)) Phytophthora infestans” value in experiment [2] was found to be 125 ppm. Further, the Activity in experiment [3] (sample 0.012% mass/volume) worked out at 69.2%; in experiment [3] (sample 0.12% mass/volume), 100%.
Take `COc1cc(C[C@H]2CO[C@H](c3ccc(O)c(OC)c3)[C@H]2CO)ccc1O` [Compound 3, (+)-lariciresinol]: the MIC in experiment [1] was 250 µg/mL (≈ 694 µM). Also, in experiment [2], the “Minimal inhibitory concentration (MIC(100%)) Phytophthora infestans” value is on record as “No activity”. Besides, the Activity was found to be 14.4% in experiment [3] (sample 0.01% mass/volume) and 94.1% in experiment [3] (sample 0.1% mass/volume).
Take `C=C[C@@](C)(O)CC[C@H]1C(=C)C[C@H](O)[C@H]2C(C)(C)CCC[C@]12C` [Compound 1, larixol]: the “Efficacy (%)” value was found to be 36.3% in experiment [4] (0.0147% mass/volume, Isopropanol); 91.2% in experiment [4] (0.025% mass/volume, Ethanol); 100.0% in experiment [4] (0.074% mass/volume, Isopropanol); 98.8% in experiment [4] (0.1% mass/volume, Ethanol); 99.5% in experiment [4] (setting [5]). Moreover, the “Minimal inhibitory concentration (MIC(100%)) Plasmopara viticola” value in experiment [1] was 16 ppm. Besides, the “Minimal inhibitory concentration (MIC(100%)) Phytophthora infestans” value in experiment [2] was 500 ppm. The figures for the Activity in experiment [3] (sample 0.0147% mass/volume), in experiment [3] (sample 0.074% mass/volume) and in experiment [3] (sample 0.147% mass/volume) were 36.3%, 100% and 99.5%, respectively.
